The target of the experiment is T1, GPR32 (Homo sapiens, UniProt O75388).
T1 construct: host or cells: HEK293 flip-in cells
As to the kind of experiment: Dot blot binding assay, positive control GPR32. The procedure: Lipids overlay assay. Lipids membrane coating and protein overlay assay was conducted as previously described (Ji R R, et al. Science 2016, 354, 572-577). Ethanol and chloroform soluble fatty acids were directly loaded on hydrophobic PVDF membrane (Bio-Rad). The fatty acids (NPD1, RvD1, RvE1, and DHA) coated membranes were dried and blocked with 1% BSA. The cell lysate and purified GPR37-V5 protein were incubated with the coating membrane for 2 h, and the binding was detected by anti-V5 tagged antibody (mouse, 1:1000, Thermo scientific, Catalog: 46-0705).
HEK cell culture and transfection. HEK293 flip-in cell line was purchased from Duke Cell Culture Facility. Cells were cultured in high glucose (4.5 g/L) Dulbecco's Modified Eagle's Medium containing 10% (v/v) fetal bovine serum (Gibco). Transfection (2 μg cDNA) was performed with Lonza electroporation (Lonza) at 70% confluency and the transfected cells were cultured in the same growth medium for 48 h before use. The hGPR37-V5 pLenti304 plasmids were obtained from DNASU (Tempe, AZ), and hGPR32, hChemR23 and hALX pcDNA3 plasmids were provided by Dr. Serhan from Harvard Medical School, Boston.
To determine whether NPD1 and TX14 bind to GPR37, we conducted dot blot assay by coating the blots with different concentrations of NPD1 and TX14 and included RvE1 as a control. […]

The structures appear in SMILES notation.

T1 sequence (O75388 whole entry): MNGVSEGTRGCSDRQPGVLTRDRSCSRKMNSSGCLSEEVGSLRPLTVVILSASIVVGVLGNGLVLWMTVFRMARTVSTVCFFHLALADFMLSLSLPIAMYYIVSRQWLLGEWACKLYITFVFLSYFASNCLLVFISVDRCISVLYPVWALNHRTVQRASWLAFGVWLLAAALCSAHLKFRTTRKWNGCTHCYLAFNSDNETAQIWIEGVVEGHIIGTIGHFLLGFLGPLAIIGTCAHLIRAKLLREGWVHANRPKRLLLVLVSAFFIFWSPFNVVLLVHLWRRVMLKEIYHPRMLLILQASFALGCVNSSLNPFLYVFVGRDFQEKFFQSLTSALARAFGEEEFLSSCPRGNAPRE

As for `CC/C=C\C[C@H](O)/C=C/C=C\C=C\C=C\[C@@H](O)[C@@H](O)C/C=C\CCC(=O)O` [RvD1], the “binding to GPR32” value is reported as “strong binding”.

The values above are taken from patent US12521356B2, “Compositions and methods for treating pain, inflammation, infection, malaria, and sepsis” (Duke University, priority 2018, dated 2026).
